# According to article PMC10726355, “Small Molecule Ligands of the BET-like Bromodomain, SmBRD3, Affect Schistosoma mansoni Survival, Oviposition, and Development” (Journal of Medicinal Chemistry, 2023):
# Entries after “also recorded” stand apart in the source; their conditions may differ. Where two headings read alike, the source gives them in different places.
# Columns and labels:
# [1] = chromLogD assay; format: physicochemical; details: reversed phase HPLC column (Gemini NX C18), pH 7.4
# Method: Lipophilicity: a chromLogD assay was carried out by the Physchem Team, Discovery Analytical, NCE Molecular Discovery at GSK. The chromatographic hydrophobicity index (CHI)[46],[47] values were measured using reversed phase HPLC column (50 × 2 mm […] Gemini NX C18, Phenomenex, UK) with fast acetonitrile gradient at starting mobile phase of pHs 2, 7.4, or 10.5. CHI values were derived directly from the gradient retention times using calibration parameters for standard compounds. The CHI value approximates to the volume % organic concentration when the compound elutes. CHI was linearly transformed into a chromLogD[48] value by least-squares fitting of experimental CHI values to calculated cLogP values for over 20000 research compounds.
# [2] = CAD solubility assay; format: physicochemical; details: phosphate buffered saline, pH 7.4, phosphate buffered saline at pH 7.4; read-out: Aqueous Solubility by CAD
# Method: A CAD solubility assay was carried out by Physchem Team, Discovery Analytical, NCE Molecular Discovery at GSK. 5 μL of 10 mM DMSO stock solution was diluted to 100 μL with pH 7.4 phosphate buffered saline, equilibrated for 1 h at room temperature, and filtered through Millipore MultiscreenHTS-PCF filter plates (MSSL BPC). The filtrate was quantified using a suitably calibrated charged aerosol detector.[45]
# [3] = target: T1, HsBRD4(1) (Homo sapiens, UniProt O60885); test: Isothermal titration calorimetry (ITC), HsBRD4(1); format: binding; details: single value ± error of the curve fit
# T1 construct: HsBRD4(1) Kd (ITC, nM); made in house; host or cells: E. coli BL21(DE3)
# [4] = target: SmBRD3(2) (Schistosoma mansoni, UniProt A0A5K4ESD7); test: biochemical; format: binding; details: for N number, binding to SmBRD3(2), Repeat 1 / N number, binding to SmBRD3(2), Repeat 2 / N number, binding to SmBRD3(2), Repeat 3 / N number, binding to SmBRD3(2), Mean: ITC stoichiometry; for N number, binding to SmBRD3(2), Mean: mean of repeats
# [5] = tested on: adult male S. mansoni; test: Determination of compound parasite permeability (LCMS of worm lysate); format: in vitro ADME, Schistosoma mansoni; details: for Quantity of compound found in lysed adult worms: worms treated with 20 μM of the same compound for 24 h
# [6] = tested on: S. mansoni miracidia; test: Ex vivo miracidia to sporocyst transformation screening; design: species or system Schistosoma mansoni; details: 48 h; for Toxicity to miracidia (dead parasites) / Effect on miracidia to sporocyst transformation: 0.5-25 μM in 1% DMSO; for Effect on miracidia to sporocyst transformation: 26 °C
# Method: S. mansoni miracidia were obtained by hatching of schistosome eggs as previously described.[73] The resulting miracidial suspension was collected, washed with Chernin’s balanced salt solution (CBSS),[73] and enumerated prior to being used for ex vivo miracidia to sporocyst screens as previously reported.[66],[73] Each compound was tested at 0.5, 2.0, 5.0, 10, and 25 μM final concentrations (in 1% DMSO). Each treatment was set up in duplicate (15–25 miracidia/well). Each titration was performed in three independent experiments (two technical replicates per data point). Parasites cultured in CBSS (containing 1% DMSO) were included as negative controls. After 48 h incubation at 26 °C in the dark, dead, fully transformed and partially transformed miracidia were enumerated as previously described.[74],[75]
# [7] = tested on: S. mansoni schistosomula; test: Ex vivo schistosomula screening (Roboworm high content imaging); design: species or system Schistosoma mansoni; details: 72 h; for Effect on schistosomula motility / Effect on schistosomula phenotype: 20 μM (Figure 7) or 10 μM (Figure S48); for EC50: Schistosoma mansoni, ethyl esters (R=Et), 95% CI in brackets
# Method: A high-throughput imaging platform that quantifies both phenotype and motility ex vivo, was used to screen compounds against schistosomula; their effects were assessed as previously described.[20] Briefly, the schistosomula stage of S. mansoni was obtained by mechanical transformation of cercariae, dispensed into 384-well tissue culture plates, and dosed with 20 μM (Figure 7) or 10 μM (Figure S48) of each compound. Following 72 h coincubation of the schistosomula and compound, the plate was subjected to high content imaging to quantify the effects of each compound.
# S. mansoni schistosomula were obtained by mechanical transformation from cercariae as previously described,[64] distributed in 384-well tissue culture plates (PerkinElmer, catalogue number 6007460) at 120 parasites/well and dosed with the selected compounds as previously reported.[65]−[68] For this study, each compound (as 10 mM DMSO stock solution) was initially tested at two concentration points (20 and 10 μM final concentration, in duplicates) in at least four independent screens (Z′ scores above 0.35).[69] Each screen contained both positive (10 μM auranofin (AUR) in 0.625% DMSO) and negative (0.625% DMSO) controls. […] Following 72 h schistosomula/compound coincubation, the plate was analyzed by the Roboworm platform.[70] EC50 values were calculated from the titrated concentrations by nonlinear regression, after log transformation of concentrations and data normalization using GraphPad Prism 7.02.
# [8] = tested on: S. mansoni adult worms; test: Ex vivo adult worm screening (motility, IVLEs, pairing); design: species or system Schistosoma mansoni; details: 72 h; for Effect on adult worm movement: 20 μM in 0.2% DMSO
# Method: S. mansoni adult worms were recovered by hepatic portal vein perfusion from TO mice (Mus musculus HsdOLa:TO - Tuck Ordinary; Envigo, UK) that were percutaneously infected 7 weeks earlier with 180 cercariae.[65],[71] Following perfusion, schistosomes were washed and processed as previously described.[65],[66] Subsequently, schistosome pairs were seeded into 48 well tissue culture plates (1 worm pair/well, in duplicate) and dosed with the compounds (20 μM in 0.2% DMSO). DMSO (0.2%) and praziquantel (10 μM in 0.1% DMSO) were also included as negative and positive controls, respectively. Parasite motility was assessed by a digital image processing-based system (WormassayGP2),[66] modified after Wormassay.[72]In vitro laid eggs (IVLEs) were enumerated and the presence or absence of paired worms was noted.
# [9] = Compound conversion in media with or without worms (LCMS); format: in vitro ADME; details: media in the presence or absence of worms; 20 μM; 24 h
# Method: As the low solubility of the ethyl ester derivatives prevented us from determining their affinity for SmBRD3(2) using ITC, it is possible that these compounds are themselves inhibitors of SmBRD3(2). Alternatively, the ethyl esters could function as pro-drugs that release the corresponding acid in the parasite. To investigate compound permeability, adult worms were treated with 20 μM of the acid 15 or the ethyl ester 22 for 24 h, and then the media exchanged three times. The worms were then lysed and the levels of the acid 15 or the ethyl ester 22 were determined using LCMS (Figure S50).
# Figure S-52. A. Estimation of the concentration of 15 and 22 in media after incubation with 22 in the presence and absence of S. mansoni. The concentration estimations were calculated as an average (presence of worm n=3, no worm n=2) from the analysis media in the presence (5 worms per well) or absence of worms, with error bars representing the s.e.m. B. Estimation of the concentration of 1 and 2 in media after incubation with 2 in the presence and absence of S. mansoni. The concentration estimations were calculated as an average (presence of worm n=2, no worm n=1) from the analysis of media in the presence (5 worms per well) or absence of worms with error bars representing the […]
# [10] = tested on: SmBRD3(1,2); test: Differential scanning fluorimetry (thermal shift), SmBRD3(1,2); details: DSF; 50 μM compound
# Method: Reported ΔTm values are the mean of two replicates.
# The differential scanning fluorimetry (DSF) or thermal stability assays were carried out following the protocol described by Niesen et al. and data were analysed as described previously.8 Thermal melting experiments were carried out using the Mx3005p real-time PCR machine (Agilent) and employing a protein concentration of 5 μM for the schistosomal bromodomains [SmBRD3(2),
# the DMSO content was 0.5% (v/v). Buffer conditions were 50 mM HEPES buffer, pH 7.5, 500 mM NaCl and a 1:500 dilution of SYPRO® Orange (Invitrogen, CA) was used. The 96-well PCR plates were sealed and centrifuged for 2 min at 1000 rpm at 25 °C before measurement. The temperature was raised with a step of 1 °C per 30 s from 25 °C to 85 °C, and fluorescence readings were taken
# difference between the transition midpoints of sample and reference wells containing protein without inhibitor in the same plate. Reported ΔTm values are the mean of two replicates.
# Isothermal titration calorimetry experiments were performed on a MicroCal PEAQ-ITC Automated or Manual (Malvern) and analysed with the MicroCal PEAQ-ITC Analysis software (Malvern 1.1.0.1262) using a single binding site model. For each experiment, the first data point was removed from the analysis. The proteins were dialysed at 4 °C overnight in a Slide-A-LyzerR MINI Dialysis Device (2000 MWCO; Thermo Scientific Life Technologies) into 50 mM HEPES, 150 mM NaCl containing 0.2% DMSO; pH 7.4. Proteins were centrifuged to remove aggregates (3 min, 3000 rpm, 25 °C).
# Compounds were dissolved as a DMSO stock solution and diluted to the required concentration using dialysis buffer (DMSO free) and to a final DMSO concentration of 0.2% (unless otherwise specified). The cell was stirred at 750 rpm, reference power set to 5 μcal/s and temperature held at 25 °C. After an initial delay of 60 s, 19 x 2 μL injections (first injection 0.4 μL) were performed with a spacing of 180 s. […]
# [11] = target: SmBRD3(1,2) (Schistosoma mansoni, UniProt A0A5K4ESD7); test: biochemical; format: binding; details: for N number, binding to SmBRD3(1,2): ITC stoichiometry, n=1 ± error of curve fit
# [12] = ITC, read-out: SmBRD3(2) pKd (converted)
# [13] = ITC, single run ± error of curve fit, Repeat 2, read-out: SmBRD3(2) Kd, Repeat 2
# [14] = ITC, single run ± error of curve fit, Repeat 3, read-out: SmBRD3(2) Kd, Repeat 3
# [15] = SmBRD3(1,2) Kd, ITC, n = 1 ± error of the curve fit
# [16] = ITC, single run ± error of curve fit, Repeat 1
# [17] = ITC, single value ± error of the curve fit or mean of 2-3 repeats ± s.e.m.
compound,measurement,setting,value
"CC(=O)N1c2ccc(-c3ccc(C(=O)O)cc3)cc2[C@H](Nc2ccc3ccsc3c2)C[C@@H]1C [Compound 9, 4-{(2S,4R)-1-Acetyl-4-[(1-benzothiophen-6-yl)amino]-2-methyl-1,2,3,4-tetrahydroquinolin-6-yl}benzoic Acid]",chromatographic logD,[1],2.83
same,solubility at 1 h,[2],≥ 259 µM
same,HsBRD4(1) Kd (ITC),[3],high affinity
same,Kd,[3],64.4 ± 20.7 nM
same,"N number, binding to SmBRD3(2), Repeat 1",[4]; Repeat 1,1.52 ± 2.2e-2
same,"N number, binding to SmBRD3(2), Repeat 2",[4]; Repeat 2,1.57 ± 3.4e-2
same,"N number, binding to SmBRD3(2), Repeat 3",[4]; Repeat 3,1.64 ± 3.3e-2
same,"N number, binding to SmBRD3(2), Mean",[4],1.58
same,Kd,[4]; [12],631 nM
same,Kd,"[4]; ITC, single run ± error of curve fit, Repeat 1, read-out: SmBRD3(2) Kd, Repeat 1",572 ± 103 nM
same,Kd,[4]; [13],778 ± 179 nM
same,Kd,[4]; [14],753 ± 176 nM
same,Kd,[4]; read-out: SmBRD3(2) Kd,701 ± 64.9 nM
"CC(=O)N1c2ccc(-c3ccc(C(=O)O)cc3)cc2[C@H](Nc2ccc3ncccc3c2)C[C@@H]1C [Compound 15, 4-{(2S,4R)-1-Acetyl-2-methyl-4-[(quinolin-6-yl)amino]-1,2,3,4-tetrahydroquinolin-6-yl}benzoic Acid]",Quantity of compound found in lysed adult worms,[5]; LCMS,lower quantities
same,HsBRD4(1) Kd (ITC),[3],high affinity
same,Kd,[3],13.5 ± 2.47 nM
same,"N number, binding to SmBRD3(2), Repeat 1",[4]; Repeat 1,1.48 ± 2.5e-2
same,"N number, binding to SmBRD3(2), Repeat 2",[4]; Repeat 2,1.51 ± 2.0e-2
same,"N number, binding to SmBRD3(2), Repeat 3",[4]; Repeat 3,1.69 ± 1.8e-2
same,"N number, binding to SmBRD3(2), Mean",[4],1.56
same,Kd,[4]; [12],398 nM
same,Kd,[4]; [13],361 ± 70.2 nM
same,Kd,[4]; [14],411 ± 60.4 nM
same,Kd,[4]; read-out: SmBRD3(2) Kd,364 ± 26.3 nM
same,Kd,"[4]; read-out: SmBRD3(2) Kd, Repeat 1",320 ± 82.8 nM
"CCOC(=O)c1ccc(-c2ccc3c(c2)[C@@H](Nc2ccc4ccsc4c2)C[C@@H](C)N3C(C)=O)cc1 [Compound 17, Ethyl 4-{(2R,4S)-1-Acetyl-4-[(1-benzothiophen-6-yl)amino]-2-methyl-1,2,3,4-tetrahydroquinolin-6-yl}benzoate]",chromatographic logD,[1],7.61
same,Toxicity to miracidia (dead parasites),[6],toxic at the higher concentrations
same,Effect on schistosomula motility,[7],did not have substantial effects
same,Effect on schistosomula phenotype,[7],did not have substantial effects
same,solubility at 1 h,[2],1 µM
same,Effect on adult worm movement,[8],some modest effects
same,Effect on egg count (in vitro laid eggs),[8]; 20 μM,some modest effects
same,SmBRD3(2) Kd,[4],No binding
same,"SmBRD3(2) Kd, Repeat 1",[4],No binding
"CCOC(=O)c1ccc(-c2ccc3c(c2)[C@H](Nc2ccc4ncccc4c2)C[C@H](C)N3C(C)=O)cc1 [Compound 22, Ethyl 4-{(2S,4R)-1-Acetyl-2-methyl-4-[(quinolin-6-yl)amino]-1,2,3,4-tetrahydroquinolin-6-yl}benzoate]",chromatographic logD,[1],5.95
same,Effect on miracidia to sporocyst transformation,[6],concentration-dependent inhibition; also recorded: substantial and concentration-dependent effect
same,Concentration at which the majority of miracidia were prevented from transforming into sporocysts,[6],2.00 µM
same,Conversion in media (ester hydrolysis / deacetylation),[9],some ester hydrolysis
same,Antischistosomula activity at 10 μM,[7]; 10 μM,active
same,Effect on schistosomula motility,[7],greatest effects; also recorded: strong effects
same,Effect on schistosomula phenotype,[7],greatest effects; also recorded: strong effects
same,EC50,[7]; read-out: Schistosomla Movement EC50,3300 nM
same,EC50,[7]; read-out: Schistosomla Phenotype EC50,1110 nM
same,solubility at 1 h,[2],13 µM
same,Worm permeability,"[5]; adult worms, 20 μM, 24 h",high worm permeability
same,Conversion of ester to acid 15 in the worm,"[5]; worms treated with 20 μM for 24 h, LCMS",can be converted from the ester to the acid in the worm
same,Quantity of compound found in lysed adult worms,[5]; LCMS,High quantities
same,Effect on adult worm movement,[8],substantial effects; also recorded: reduced
same,Effect on egg count (in vitro laid eggs),[8]; 20 μM,reduced
same,Effect on worm pairing,[8]; 20 μM,reduced
same,SmBRD3(2) Kd,[4],No binding
same,"SmBRD3(2) Kd, Repeat 1",[4],No binding
"Cc1noc(C)c1-c1cc(O)cc(C(O)c2ccccc2)c1 (stereo not shown) [OXFBD02 (1), OXFBD02, reference compound]",Effect on miracidia to sporocyst transformation,[6],modest effects
same,"Thermal stabilisation (ΔTm) of SmBRD3(1,2)",[10],"stabilize SmBRD3(1,2)"
same,"N number, binding to SmBRD3(1,2)",[11],1.61 ± 3.3e-2
same,Kd,[11]; [15],683 ± 166 nM
same,Kd,"[11]; SmBRD3(1,2) pKd, ITC",631 nM
same,"SmBRD3(2) Kd, Repeat 1",[4]; [16],No binding
same,SmBRD3(2) Kd,[4]; [17],no binding detected; also recorded: No detectable binding
"CC(=O)Oc1cc(-c2c(C)noc2C)cc(C(O)c2ccccc2)c1 (stereo not shown) [OXFBD03 (2), OXFBD03, reference compound]",Conversion in media (ester hydrolysis / deacetylation),[9],rapidly deacetylated
same,"N number, binding to SmBRD3(1,2)",[11],1.17 ± 1.7e-2
same,Kd,[11]; [15],675 ± 97.6 nM
same,Kd,"[11]; SmBRD3(1,2) pKd, ITC",631 nM
same,"SmBRD3(2) Kd, Repeat 1",[4]; [16],No binding
same,SmBRD3(2) Kd,[4]; [17],No detectable binding
"(+)-JQ1 [(+)-JQ1 (5), reference compound]",Toxicity to miracidia (dead parasites),[6],toxic at the higher concentrations
same,Effect on schistosomula phenotype,[7],showed activity
same,"Thermal stabilisation (ΔTm) of SmBRD3(1,2)",[10],"stabilize SmBRD3(1,2)"
same,"SmBRD3(1,2) pKd",[11]; ITC,6.4
same,"N number, binding to SmBRD3(1,2)",[11],3.87 ± 7.0 e-2
same,Kd,"[11]; ITC, n = 1 ± error of the curve fit, read-out: SmBRD3(1,2) Kd",445 ± 106 nM
same,SmBRD3(2) Kd,[4],no binding detected; also recorded: No detectable binding
same,"SmBRD3(2) Kd, Repeat 1",[4],No binding
